US11717013B1, “Micronutrient combination to reduce blood pressure” (priority 2022, dated 2023)

Biological target: T1, Angiotensin I Converting Enzyme isolated from cultured human aortic endothelial cells (Homo sapiens, UniProt P12821)
T1 construct: host or cells: human aortic endothelial cells (AoEC), lysed with CelLytic M
Assay: ACE activity assay, ACE isolated from cultured human aortic endothelial cells
Type: biochemical
Details: 200 mcg/ml (FIG. 5); read-out: inhibition of ACE1 activity
Method: ACE 1 activity: Effects of New Micronutrient composition on catalytic activity of Angiotensin I Converting Enzyme (ACE) was analyzed using recombinant catalytic ACE domain (Sigma) or ACE isolated from cultured human aortic endothelial cells (AoEC) with ACE Activity Assay Kit (Fluorometric, Sigma, Catalog Number CS0002) in accordance with manufacturer's protocol. For preparation of cell lysate ACE human AoEC (Lonza) were plated in 75 cm2 plastic flask at 6th passage and cultured with EGB-2 endothelial cell culture medium (Lonza) in 5%CO2 at 37 °C until cell forming a confluent layer. Cells were washed twice with 10 ml phosphate buffered solution (PBS) and lysated by scratching and resuspending in 5 ml CelLytic™ M solution (Sigma) after 15 min incubation at room temperature. Results are expressed as percentage of untreated controls presented as averages +/− SD from three replicates. The results on FIG. 4 show concentration dependent inhibitory effect of the micronutrient composition for blood pressure lowering on catalytic activity of Angiotensin1 converting enzyme. Changes in ACE1 activity are expressed in % compared to control. The formula applied at 3 mcg/ml inhibits ACE1 by 20% with the most pronounced inhibitory effect of 90% and 97% obtained at 50 mcg/ml and 200 mcg/ml respectively. […]

T1 sequence (P12821 30-1306): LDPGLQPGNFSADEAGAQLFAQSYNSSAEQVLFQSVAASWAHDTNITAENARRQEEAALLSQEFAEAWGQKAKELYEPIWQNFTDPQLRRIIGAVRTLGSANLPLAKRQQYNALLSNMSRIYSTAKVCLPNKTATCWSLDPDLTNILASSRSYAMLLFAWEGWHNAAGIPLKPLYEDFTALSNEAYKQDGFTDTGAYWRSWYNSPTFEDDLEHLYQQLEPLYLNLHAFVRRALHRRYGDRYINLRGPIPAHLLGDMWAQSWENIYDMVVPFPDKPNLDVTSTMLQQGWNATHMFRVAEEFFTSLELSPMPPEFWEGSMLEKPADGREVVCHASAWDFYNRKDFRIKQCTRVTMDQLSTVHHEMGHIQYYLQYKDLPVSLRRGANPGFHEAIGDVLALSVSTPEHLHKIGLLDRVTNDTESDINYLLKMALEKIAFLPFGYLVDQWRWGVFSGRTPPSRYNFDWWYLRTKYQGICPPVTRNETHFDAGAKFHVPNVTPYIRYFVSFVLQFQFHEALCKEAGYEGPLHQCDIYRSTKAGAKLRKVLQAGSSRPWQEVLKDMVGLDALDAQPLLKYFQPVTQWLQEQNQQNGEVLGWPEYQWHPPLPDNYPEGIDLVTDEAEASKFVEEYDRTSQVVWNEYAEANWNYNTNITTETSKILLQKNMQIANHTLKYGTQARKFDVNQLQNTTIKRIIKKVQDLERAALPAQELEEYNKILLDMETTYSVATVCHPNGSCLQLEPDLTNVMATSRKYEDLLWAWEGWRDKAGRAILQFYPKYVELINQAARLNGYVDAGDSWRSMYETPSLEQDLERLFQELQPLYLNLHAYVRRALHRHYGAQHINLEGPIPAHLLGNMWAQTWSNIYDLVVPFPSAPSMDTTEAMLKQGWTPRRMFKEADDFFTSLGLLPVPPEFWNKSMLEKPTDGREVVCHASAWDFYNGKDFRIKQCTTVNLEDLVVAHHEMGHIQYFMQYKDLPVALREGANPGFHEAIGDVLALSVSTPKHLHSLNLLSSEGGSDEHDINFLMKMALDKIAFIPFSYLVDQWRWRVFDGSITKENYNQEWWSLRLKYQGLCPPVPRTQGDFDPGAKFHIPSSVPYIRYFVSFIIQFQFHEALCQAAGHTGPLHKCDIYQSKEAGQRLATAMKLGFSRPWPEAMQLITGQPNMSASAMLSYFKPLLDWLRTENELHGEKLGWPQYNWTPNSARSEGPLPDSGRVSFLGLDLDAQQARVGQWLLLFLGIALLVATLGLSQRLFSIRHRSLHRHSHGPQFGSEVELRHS

## NCCCC[C@H](N[C@@H](CCc1ccccc1)C(=O)O)C(=O)N1CCC[C@H]1C(=O)O [Lisinopril]
  inhibition at 200 µg/mL: 16%
